{"source": "patent US11564394B2", "about": "“Distorted gold (I)-phosphine complexes and methods for use as antifungal agents” (University of Kentucky Research Foundation, priority 2019, dated 2023)", "key": {"[1]": {"tested_on": "fungal strains (Candida spp., Cryptococcus spp., Aspergillus spp., Fusarium spp.)", "assay": "MIC determination, summary statements over the strain panel", "format": "cell-based", "settings": "all filamentous fungi, Aspergillus spp. and Fusarium spp."}, "[2]": {"tested_on": "C. auris AR Bank # 0385 (strain IV)", "assay": "MIC determination (broth microdilution)", "format": "cell-based, Candida auris", "settings": "strain IV = C. auris AR Bank # 0385; MIC-0; 48 h (CAS read at 24 h)"}, "[3]": {"tested_on": "C. albicans ATCC 64124(R) (strain F)", "format": "cell-based, Candida albicans", "settings": "strain F = C. albicans ATCC 64124(R); MIC-0; 48 h; listed as printed beside letter G"}, "[4]": {"tested_on": "C. auris AR Bank # 0384 (strain K)", "assay": "MIC determination (broth microdilution)", "format": "cell-based, Candida auris", "settings": "strain K = C. auris AR Bank # 0384; MIC-0; 48 h (CAS read at 24 h); Table 1; also in Table 2"}, "[5]": {"tested_on": "C. auris AR Bank # 0390 (strain L)", "assay": "MIC determination (broth microdilution)", "format": "cell-based, Candida auris", "settings": "strain L = C. auris AR Bank # 0390; MIC-0; 48 h (CAS read at 24 h); Table 1 row printed without letter, below L; also in Table 2"}, "[6]": {"tested_on": "C. albicans ATCC MYA-1237(R) (strain C)", "format": "cell-based, Candida albicans", "settings": "strain C = C. albicans ATCC MYA-1237(R); MIC-0; 48 h; listed as printed beside letter D"}, "[7]": {"tested_on": "C. auris AR Bank # 0388 (strain VII)", "assay": "MIC determination (broth microdilution)", "format": "cell-based, Candida auris", "settings": "strain VII = C. auris AR Bank # 0388; MIC-0; 48 h (CAS read at 24 h)"}, "[8]": {"tested_on": "C. neoformans CN1 (strain N)", "assay": "MIC determination (broth microdilution)", "format": "cell-based, Cryptococcus neoformans", "settings": "MIC-0, 72 h at 35° C."}, "[9]": {"tested_on": "C. albicans ATCC 10231 (strain B) pre-formed biofilm", "assay": "Disruption of pre-formed biofilm (XTT)", "format": "cell-based, Candida albicans"}, "[10]": {"tested_on": "C. albicans ATCC MYA-2876(S) (strain E)", "assay": "MIC determination (broth microdilution)", "format": "cell-based, Candida albicans", "settings": "strain E = C. albicans ATCC MYA-2876(S); MIC-0; 48 h; listed as printed beside letter F"}, "[11]": {"tested_on": "C. albicans ATCC MYA-1003(R) (strain A)", "format": "cell-based, Candida albicans", "settings": "strain A = C. albicans ATCC MYA-1003(R); MIC-0; 48 h at 35° C."}, "[12]": {"tested_on": "C. albicans ATCC 90819(R) (strain G)", "format": "cell-based, Candida albicans", "settings": "strain G = C. albicans ATCC 90819(R); MIC-0; 48 h; listed as printed without letter, below G"}, "[13]": {"tested_on": "C. neoformans CN3 (strain P)", "assay": "MIC determination (broth microdilution)", "format": "cell-based, Cryptococcus neoformans", "settings": "MIC-0, 72 h at 35° C."}, "[14]": {"tested_on": "C. auris AR Bank # 0384 (strain K) pre-formed biofilm", "format": "cell-based, Candida auris", "settings": "biofilm treated at 24 h, XTT"}, "[15]": {"tested_on": "C. auris AR Bank # 0382 (strain II)", "assay": "MIC determination (broth microdilution)", "format": "cell-based, Candida auris", "settings": "strain II = C. auris AR Bank # 0382; MIC-0; 48 h (CAS read at 24 h)"}}}
{"molecule": "C[C@@H]1[C@H](O)[C@@H](C)/C=C/C=C/C=C/C=C/C=C/C=C/C=C/[C@H](O[C@@H]2O[C@H](C)[C@@H](O)[C@H](N)[C@@H]2O)C[C@@H]2O[C@](O)(C[C@@H](O)C[C@@H](O)[C@H](O)CC[C@@H](O)C[C@@H](O)CC(=O)O[C@H]1C)C[C@H](O)[C@H]2C(=O)O", "note": "[AmB, amphotericin B, reference compound]", "values": [{"measurement": "MIC values (range)", "setting": "[1]", "result": "7.8 to 31.3", "unit": "µg/mL"}, {"measurement": "MIC", "setting": "[2]", "result": 1.95, "unit": "µg/mL"}, {"measurement": "MIC (in parentheses)", "setting": "[2]", "result": 2.1, "unit": "µM"}, {"measurement": "MIC", "setting": "[3]", "result": 3.9, "unit": "µg/mL"}, {"measurement": "MIC (in parentheses)", "setting": "[3]", "result": 4.2, "unit": "µM"}, {"measurement": "MIC", "setting": "[4]", "result": 1.95, "unit": "µg/mL"}, {"measurement": "MIC (in parentheses)", "setting": "[4]", "result": 2.1, "unit": "µM"}, {"measurement": "MIC", "setting": "[5]", "result": 1.95, "unit": "µg/mL"}, {"measurement": "MIC (in parentheses)", "setting": "[5]", "result": 2.1, "unit": "µM"}, {"measurement": "MIC", "setting": "[6]", "result": 3.9, "unit": "µg/mL"}, {"measurement": "MIC (in parentheses)", "setting": "[6]", "result": 4.2, "unit": "µM"}, {"measurement": "MIC", "setting": "[7]", "result": 1.95, "unit": "µg/mL"}, {"measurement": "MIC (in parentheses)", "setting": "[7]", "result": 2.1, "unit": "µM"}, {"measurement": "MIC", "setting": "[8]", "result": 0.98, "unit": "µg/mL"}, {"measurement": "MIC (in parentheses)", "setting": "[8]", "result": 1.1, "unit": "µM"}, {"measurement": "SMIC90 of pre-formed biofilm relative to MIC with planktonic cells", "setting": "[9]", "result": 32, "unit": "fold"}, {"measurement": "Pre-formed biofilm SMIC90", "setting": "[9]; biofilm treated at 24 h, XTT", "result": 31.3, "unit": "µg/mL"}, {"measurement": "MIC", "setting": "[10]", "result": 3.9, "unit": "µg/mL"}, {"measurement": "MIC (in parentheses)", "setting": "[10]", "result": 4.2, "unit": "µM"}, {"measurement": "MIC", "setting": "[11]", "result": 0.98, "unit": "µg/mL"}, {"measurement": "MIC (in parentheses)", "setting": "[11]", "result": 1.1, "unit": "µM"}, {"measurement": "MIC", "setting": "[12]", "result": 0.98, "unit": "µg/mL"}, {"measurement": "MIC (in parentheses)", "setting": "[12]", "result": 1.1, "unit": "µM"}, {"measurement": "MIC", "setting": "[13]", "result": 0.98, "unit": "µg/mL"}, {"measurement": "MIC (in parentheses)", "setting": "[13]", "result": 1.1, "unit": "µM"}, {"measurement": "Pre-formed biofilm SMIC90", "setting": "[14]", "result": 1.95, "unit": "µg/mL"}, {"measurement": "MIC", "setting": "[15]", "result": 0.98, "unit": "µg/mL"}, {"measurement": "MIC (in parentheses)", "setting": "[15]", "result": 1.1, "unit": "µM"}]}
